Assay results: US20090012018A1, “Inhibition of pancretic cancer cell growth” (priority 2004, published 2009)
Entries after “also recorded” stand apart in the source; their conditions may differ.

How the values were obtained:
[1] = system: Wnt signaling (Top-Flash reporter); experiment: Fop/Top-Flash luciferase reporter assay; assay type: cell-based, human; settings: CFPAC-1, BxPC3, L3.6sl, Panc4.21, 24 hrs after transfection, sulindac 250 μM, sulindac sulfone 150 μM, cyclopamine 10 μM, or co-transfection
Experimental: (§1) The cell lines were plated the day prior to transfection at a density of 8×10^4 cells/well in a 24-well plate. The luciferase reporter constructs used included: Top-Flash and Fop-Flash containing multimerized Tcf-Lef binding sites or nonfunctional sites, respectively; TK-Luc (Promega); and GliBS containing 8×Gli binding sites upstream of the TK minimal promoter (Sasaki et al., Development, 124:1313-1322, 1997). In different experiments, the reporter constructs were co-transfected with an expression vector containing a dominant-negative form of Lef1 or the endogenous Wnt inhibitor Icat. The dominant negative Lef1 (gift from S. Pleasure) was generated by cloning the 63 amino acid N-terminal deleted form of Lef1 into the pEF5 plasmid. This construct also contains an IRES-EGFP cassette. The cDNA coding for the Icat protein was cloned into pIRES2-EGFP (BD Biosciences Clontech). Transfections were performed using the Effectene transfection reagent […] according to the user's manual. A Renilla luciferase plasmid (Promega) was included to control for transfection efficiency. Transfected cells were cultured in medium containing serum. […] Cells were harvested 24 hrs after transfection, and luciferase activity was assayed using the Dual Luciferase kit (Promega), according to the user's manual.
For each Fop-luciferase or Top-luciferase experiment, a renilla luciferase construct was included. For each experimental condition (drug treatment, co-transfection or siRNA), triplicate Top- and Fop-luciferase samples were analyzed. To equilibrate the total vector-DNA (or siRNA) amount in all samples, equivalent amounts of an empty expression vector or unrelated siRNAs were transfected into control samples. The following equations were used to obtain the normalized luciferase values and the relative (fold) activation. The firefly luciferase (Fop and Top) values were divided by the renilla luciferase values to obtain the normalized luciferase values. The normalized Top values for each condition were divided by the Fop values of the same condition (e.g., untreated Top/untreated Fop; drug-treated Top/drug-treated Fop). […] To minimize the number of bars in each figure, only representative average Fop values are included in the graphs.

[2] = system: Tcf1; experiment: Immunofluorescence of Tcf expression in pancreatic cancer cells; assay type: cell-based, human; settings: pancreatic cancer cells (Panc4.21); cyclopamine for 24 hrs (FIG. 4C) or sulindac-treated
[3] = system: pancreatic adenocarcinoma cell lines; experiment: Growth, BrdU incorporation and apoptosis of pancreatic cancer cell lines (results stated for the lines together); assay type: cell-based, human; settings: 7/13 lines
Experimental: The small chemical inhibitors were used at the following final concentrations: up to 250 μM for sulindac (Sigma), up to 300 μM for sulindac sulfone (Calbiochem or ICN), NS-398 up to 25 μM (Calbiochem), sodium salicylate up to 100 μM (Calbiochem). […] To test for drug sensitivity, the cells were plated in control medium or in medium containing the drug of interest for 2 to 5 days. The culture media was changed every 48 hrs. The images showing cell morphology were taken with a Nikon inverted microscope.
Cells were pulsed with 10 μM BrdU for two hours and then harvested and fixed. BrdU incorporation was detected with a fluorescein isothiocyanate conjugated anti-BrdU antibody (BD Biosciences) and total DNA was stained with 7-AAD (BD Biosciences). FACS analysis was performed according to the BD Biosciences BrdU flow kit manual. Cells in S-phase were defined as the BrdU-positive cell population with a DNA content between 2N and 4N. According to the manual, apoptotic cells were defined as a subpopulation of G0/G1 cells with DNA content lower than the diploid amount (<2N).
as §1
Small interfering RNA (siRNA) oligonucleotides against β-catenin containing two thymidine residues (dTdT) at the 3′ end of the sequence (5′-[…] […] T-3′ set forth as SEQ ID NO:57) were used for treatment of cancer cells as described (Verma et al., Clin Cancer Res, 9:1291-1300, 2003). The GLI1 siRNA (sense 5′-[…] […]-3′ set forth as SEQ ID NO:58) was also used as described (Sanchez et al., Proc Natl Acad Sci USA 101:12561-12566, 2004). Small interfering RNA against GLI2 was ordered against the target sequence 5-[…] […] A-3′, set forth as SEQ ID NO:59). […] Cells were transfected with oligofectamine (Invitrogen) according to the user's manual, with a final siRNA concentration of 100 or 300 nM. Transfected cells were incubated for 48 hrs before harvesting.

[4] = system: CFPAC-1 tumors; experiment: Subcutaneous tumor treatment in nude mice; assay type: in vivo, CD-1 nude mice; settings: treated for five days vs controls, sulindac 3 mg/mouse/day injected, sulindac sulfone 1.5 mg/mouse/day orally
Experimental: (§2) A total of 0.1 ml Hanks' balanced salt solution and matrigel (1:1) containing 2×10^6 cells was injected subcutaneously into CD-1 nude mice (Charles River Laboratories). Tumors were grown for 4 days to a minimum volume of 125 mm^3. Treatment was initiated simultaneously for all subjects. Mice were injected with vector alone (peanut oil: PBS 7:3 v/v) or with a sulindac solution (3 mg/mouse/day) daily for 5 days. Sulindac sulfone was administered orally (1.5 mg/mouse/day). At the end of the treatment period, tumors were excised from mice, weighed and photographed.

[5] = system: BxPC3 tumors; experiment: Subcutaneous tumor treatment in nude mice; assay type: in vivo, CD-1 nude mice
Experimental: as §2

SMILES: CC1=C(CC(=O)O)c2cc(F)ccc2/C1=C\c1ccc([S+](C)[O-])cc1 (stereo not shown) [sulindac]
- Top-Flash reporter activity (Wnt signaling) [1]: inhibit Wnt activity; also recorded: inhibited; also recorded: showed an inhibitory effect
- Top-Flash reporter activity (Wnt signaling) ([1]; listed as Sulindac): suppressed Top-Flash reporter activation in all cell lines tested
- Tcf1 expression [2]: reduced
- lines tested with measurable reduction in cell proliferation [3]: 54%
- tumor growth (volume, size) [4]: largely unaffected; also recorded: No reduction
- reduction in tumor volume compared to untreated samples ([5]; sulindac 3 mg/mouse/day injected daily for 5 days): 80%
- tumor growth ([5]; treated for five days vs untreated controls, sulindac 3 mg/mouse/day injected, sulindac sulfone 1.5 mg/mouse/day orally): strongly reduced
